The values that follow come from patent US6610720B2, “Method for treating or preventing emesis” (Merck Frosst Canada & Co., priority 2000, dated 2003).

“Also recorded” adds a separate entry of the source. Where two headings read alike, the source gives them in different places. Marks after values point to notes of the source that are not given here.

Data set [1] has as its system ferrets. Description: Administration of alpha-2 adrenoceptor antagonists to ferrets (retching and vomiting). The conditions noted are these: for Retches / Vomits / Latency responders only: mean±SEM; for Emesis following administration (in words): ferrets.
Experimental: The ferrets were housed in a humidity and temperature controlled environment with food (Marshall Premium ferret diet; Marshall Farms, North Rose, N.Y., U.S.A.) and water provided ad libitum. On the day of the experiment, ferrets were put into individual cages and left to habituate for at least 30 minutes. Fasting was not a pre-requisite of these experiments. Pre-treatment with a test compound or vehicle was performed using a subcutaneous, an intraperitoneal or an oral administration, 60 minutes prior to the emetic challenge. […] Drugs were freshly prepared on the day of the experiment. […] During that time, the number of retches (i.e. rhythmic contraction of the abdomen) and vomiting movements (i.e. oral expulsion or attempt to expel solid/liquid matter from the gastrointestinal tract) were recorded.
Data is expressed as mean±SEM.
For data set [2], the system named is ferrets. Description: Behavioural effects observed following the administration of RS14203 in ferrets. Format: in vivo, ferret (Mustela putorius furo). The conditions noted are these: RS14203 1 mg/kg p.o. An excerpt:
(§1) Fasting was not a pre-requisite of these experiments.

The test system of another data set is humans. The conditions noted are these: cited from earlier work.
The test system of data set [3] is ferrets. The conditions noted are these: for Incidence / Retches / Vomits / Latency responders only: 60 min prior; for Retches / Vomits: 2 h observation.
From the text: The anti-emetic activity of alpha-2 adrenoceptor agonists is preferably measured using, for instance, an in vivo emesis assay in the ferret. A variety of emetic stimuli may be employed including, for example, treatment with type IV cyclic nucleotide phosphodiesterase (PDE4) inhibitors (see Robichaud et al, Neuropharmacology (1999) 38, 289-297).
as §1

The test system of data set [4] is ferrets. The conditions noted are these: doses ranging from 62.5-250 μg/kg.
Experimental: Male adult ferrets (Mustela putorius furo; 1-2 kg, Marshall Farms, North Rose, N.Y., U.S.A.) were used and experiments were conducted according to procedures previously described (Robichaud et al, 1999, supra). The ferrets were housed in a humidity and temperature controlled environment with food (Marshall Premium ferret diet; Marshall Farms, North Rose, N.Y., U.S.A.) and water provided ad libitum. On the day of the experiment, ferrets were put into individual cages and left to habituate for at least 30 minutes. Fasting was not a pre-requisite of these experiments. Pre-treatment with a test compound or vehicle was performed using a subcutaneous, an intraperitoneal or an oral administration, 60 minutes prior to the emetic challenge. Emesis was induced by PDE4 inhibitors administered orally (dosing volume=1 ml/kg) at a dose known to cause emesis (Robichaud et al, 1999, supra). Drugs were freshly prepared on the day of the experiment. […] During that time, the number of retches (i.e. rhythmic contraction of the abdomen) and vomiting movements (i.e. oral expulsion or attempt to expel solid/liquid matter from the gastrointestinal tract) were recorded.
For another data set, the system named is elderly patients. The conditions noted are these: elderly patients undergoing intraocular surgery; cited from earlier work.
The next data set concerns dogs. The conditions noted are these: i.m.; cited from earlier work.
The next data set relates to children (3-12 yr). The conditions noted are these: cited from earlier work.
Setting [5] is: emetic agent CT-2450 30 mg/kg p.o., pre-treatment 250 μg/kg s.c.
The mark [6] stands for this setting: emetic agent R-rolipram 3 mg/kg p.o., pre-treatment 250 μg/kg s.c.
Setting [7] is: emetic agent R-rolipram 3 mg/kg p.o., pre-treatment 250 μg/kg s.c., mean ± SEM.
[8] abbreviates: emetic agent RS14203 1 mg/kg p.o., pre-treatment 62.5 μg/kg s.c., mean ± SEM.
The mark [9] stands for this setting: emetic agent RS14203 1 mg/kg p.o., pre-treatment 125 μg/kg s.c.
Setting [10] is: emetic agent RS14203 1 mg/kg p.o., pre-treatment 125 μg/kg s.c., mean ± SEM.
Setting [11] is: emetic agent RS14203 1 mg/kg p.o., pre-treatment 250 μg/kg s.c.
Setting [12] is: emetic agent RS14203 1 mg/kg p.o., pre-treatment 250 μg/kg s.c., mean ± SEM.
[13] abbreviates: pre-treatment 250 μg/kg s.c., listed as Clonidine.

With `CS(=O)(=O)NCCN1C(=O)NC[C@]12CCN1CCc3c(oc4ccccc34)[C@@H]1C2` [MK-467], in the data set with ferrets [1] (1 mg/kg p.o.), the Incidence is on record as 0/3, the Retches was 0 n° episodes and the Vomits was 0 n° episodes. In addition, in the data set on ferrets [1] (3 mg/kg p.o.), the Incidence is listed as 1/3, the Latency responders only is 12 min, the Retches stood at 4 ± 4 n° episodes and the Vomits is reported as 0.3 ± 0.3 n° episodes. In the data set with ferrets [1] (10 mg/kg po), the Incidence was 2/3, the Latency responders only worked out at 18.5 ± 2.5 min, the Retches is recorded as 12 ± 6 n° episodes and the Vomits stood at 1.3 ± 0.9 n° episodes. Besides, the “Emesis following administration (in words)” value with ferrets [1] is given as “Emesis was also recorded”.

For the compound `CN1CC[C@]2(CCN3CCc4c(oc5ccccc45)[C@@H]3C2)N(C)C1=O.Cl` [MK-912], in the data set on ferrets [1] (1 mg/kg p.o.), the Incidence is given as 2/8, the Latency responders only came to 13.0 ± 5.0 min, the Retches worked out at 3.2 ± 2.3 n° episodes and the Vomits was 0.4 ± 0.3 n° episodes. In addition, the “Emesis following administration (in words)” value in the data set on ferrets [1] is recorded as “Emesis was also recorded”.

Turning to `O=[N+]([O-])c1cccc(-c2cc(Cc3ccncc3)cc3cccnc23)c1` [RS14203], the “Behavioural effects produced in addition to emesis” value in the data set on ferrets [2] was “salivation, hyperventilation, gagging and clawing at the mouth”.

Take `COC(=O)[C@@H]1[C@H]2C[C@H]3c4[nH]c5ccccc5c4CCN3C[C@@H]2CC[C@@H]1O` [Yohimbine, yohimbine]: the “Adverse effects following parenteral administration” value with humans was “nausea and vomiting”. In addition, in the data set with ferrets [1] (3 mg/kg i.p.), the Incidence is 3/3, the Latency responders only worked out at 7 ± 1 min, the Retches came to 18.7 ± 3.8 n° episodes and the Vomits is 5.3 ± 1.8 n° episodes. In the data set with ferrets [1] (3 mg/kg p.o.), the Incidence is 3/4, the Latency responders only came to 30.3 ± 13.4 min, the Retches amounted to 9.8 ± 6.2 n° episodes and the Vomits was 3.2 ± 1.2 n° episodes. In the data set on ferrets [1] (3 mg/kg s.c.), the Incidence is on record as 2/3, the Latency responders only amounted to 9.5 ± 2.5 min, the Retches came to 29.7 ± 17.6 n° episodes and the Vomits worked out at 3.0 ± 1.7 n° episodes. In addition, the “Emesis following administration (in words)” value in the data set on ferrets [1] was “induced retching and vomiting in all ferrets treated; also recorded: caused unexpected retching and vomiting”.

`Clc1cccc(Cl)c1N=C1NCCN1` [clonidine]: in the data set on ferrets [3] (CT-2450 30 mg/kg p.o., pre-treatment 250 μg/kg, all animals treated), the “Effect on emesis induced by CT-2450” value is “abolished emesis”. Further, the “Animals with complete protection against R-rolipram-induced emesis” value with ferrets [3] (R-rolipram 3 mg/kg p.o., pre-treatment 250 μg/kg) is “two out of three”. Moreover, the “Animals showing complete protection against RS14203-induced emesis” value in the data set on ferrets [3] (RS14203 1 mg/kg p.o., pre-treatment 250 μg/kg) is “five out of six”. The “Effect on number of retches and vomits induced by RS14203” value in the data set with ferrets [3] (RS14203 1 mg/kg p.o., pre-treatment 62.5-250 μg/kg) is given as “dose-dependently decreased”. For the same compound, the Incidence with ferrets [3] (setting [5]) was 0/5; with ferrets [3] (setting [6]), 1/3; with ferrets [3] (emetic agent RS14203 1 mg/kg p.o., pre-treatment 62.5 μg/kg s.c.), 2/3; in the data set with ferrets [3] (setting [9]), 1/3; with ferrets [3] (setting [11]) it was 1/6. The Retches in the data set on ferrets [3] (setting [5]) was 0* n° episodes; in the data set on ferrets [3] (setting [7]) it was 54.3 ± 54.3 n° episodes; in the data set with ferrets [3] (setting [8]) it was 9.3 ± 7.9 n° episodes; in the data set with ferrets [3] (setting [10]), 2 ± 2 n° episodes; in the data set on ferrets [3] (setting [12]), 0.2 ± 0.2 n° episodes. In addition, the Vomits was 0* n° episodes in the data set on ferrets [3] (setting [5]); 5.7 ± 5.7 n° episodes in the data set with ferrets [3] (setting [7]); 1.7 ± 1.2 n° episodes with ferrets [3] (setting [8]); 1 ± 1 n° episodes in the data set with ferrets [3] (setting [10]); 0.2 ± 0.2 n° episodes with ferrets [3] (setting [12]). The Latency responders only with ferrets [3] (setting [6]) amounted to 5 min; in the data set on ferrets [3] (setting [8]) it was 55.0 ± 49.0 min; in the data set on ferrets [3] (setting [9]) it was 72 min; with ferrets [3] (setting [11]) it was 111 min. In addition, in the data set on ferrets [2], the “Effect on RS14203-induced gagging or clawing at the mouth” value was “no effect”. In addition, the Clawing at mouth is listed as 2/3 in the data set with ferrets [2] (pre-treatment 62.5 μg/kg s.c.), 1/3 in the data set with ferrets [2] (pre-treatment 125 μg/kg s.c.) and 5/6 in the data set on ferrets [2] (pre-treatment 250 μg/kg s.c.). The Gagging in the data set on ferrets [2] (pre-treatment 62.5 μg/kg s.c.) is given as 1/3; in the data set on ferrets [2] (pre-treatment 125 μg/kg s.c.) it was 1/3; with ferrets [2] (pre-treatment 250 μg/kg s.c.), 5/6. For the same compound, the Hyperventilation is 2/3 in the data set with ferrets [2] (pre-treatment 62.5 μg/kg s.c.), 2/3 in the data set with ferrets [2] (pre-treatment 125 μg/kg s.c.), “one out of six” in the data set with ferrets [2] (pre-treatment 250 μg/kg s.c.) and 1/6 in the data set on ferrets [2] (setting [13]). Besides, the Salivation in the data set with ferrets [2] (pre-treatment 62.5 μg/kg s.c.) is 2/3; in the data set on ferrets [2] (pre-treatment 125 μg/kg s.c.), 1/3; with ferrets [2] (pre-treatment 250 μg/kg s.c.), “none of the animals”; with ferrets [2] (setting [13]), 0/6. The “Emesis triggered by the compound by itself” value in the data set on ferrets [4] is on record as “did not trigger emesis”. The “Sedation following the administration” value with ferrets [4] (appeared dose-related) was “light sedation”. In addition, the Effect on emesis result in the data set on elderly patients is on record as “no effect on emesis”. Moreover, the Sedation result in the data set on elderly patients is listed as “induced sedation”. In addition, the “Emetic ED50” value with dogs was 0.025 mg/kg. In the data set with children (3-12 yr), the “Incidence and frequency of vomiting following strabismus surgery” value was “lower the incidence and frequency of vomiting”.
